In the NIST ThermoML archive (doi:10.1021/je400423u):
Numbers after ± are expanded uncertainties.

Columns and labels:
[1] = 101 kPa, Liquid; for viscosity: Falling or rolling sphere viscometry; for mass density: Vibrating tube method
[2] = xn = mol fraction of the nth substance listed; details: 101 kPa, Liquid, x1 = 1; for viscosity: Falling or rolling sphere viscometry; for mass density: Vibrating tube method

Compound | viscosity ([1]; 308.15 K) | mass density ([1]; 308.15 K) | viscosity ([1]; 313.15 K) | mass density ([1]; 313.15 K) | viscosity ([1]; 318.15 K) | mass density ([1]; 318.15 K) | viscosity ([1]; 323.15 K) | mass density ([1]; 323.15 K) | mass density ([1]; 328.15 K) | mass density ([1]; 333.15 K) | mass density ([1]; 338.15 K) | mass density ([1]; 343.15 K) | further results
CCC(C)O (stereo not given) [butan-2-ol] | 2.128 ± 0.017 mPa·s | 794.05 ± 0.14 kg/m3 | 1.822 ± 0.015 mPa·s | 789.65 ± 0.14 kg/m3 | 1.533 ± 0.013 mPa·s | 785.15 ± 0.14 kg/m3 | 1.315 ± 0.011 mPa·s | 780.55 ± 0.15 kg/m3 | 775.83 ± 0.15 kg/m3 | 770.99 ± 0.15 kg/m3 | 766.03 ± 0.15 kg/m3 | 760.96 ± 0.15 kg/m3 | viscosity ([1]; 333.15 K): 1.025 ± 0.0087 mPa·s
CC(C)CO [2-methyl-1-propanol] | 2.382 ± 0.019 mPa·s | 790.12 ± 0.12 kg/m3 | 2.116 ± 0.017 mPa·s | 786.12 ± 0.12 kg/m3 | 1.861 ± 0.015 mPa·s | 782.06 ± 0.12 kg/m3 | 1.602 ± 0.013 mPa·s | 777.93 ± 0.12 kg/m3 | 773.73 ± 0.12 kg/m3 | 769.44 ± 0.13 kg/m3 | 765.07 ± 0.13 kg/m3 | 760.61 ± 0.13 kg/m3 | 
CC(C)(C)O [2-methylpropan-2-ol] | 2.589 ± 0.02 mPa·s | 770.36 ± 0.13 kg/m3 | 2.089 ± 0.016 mPa·s | 765.07 ± 0.13 kg/m3 | 1.69 ± 0.013 mPa·s | 759.67 ± 0.13 kg/m3 | 1.409 ± 0.011 mPa·s | 754.19 ± 0.13 kg/m3 | 748.62 ± 0.13 kg/m3 | 742.95 ± 0.14 kg/m3 | 737.19 ± 0.14 kg/m3 | 731.31 ± 0.14 kg/m3 | 
CCC(C)O (stereo not given) [butan-2-ol] + CC(C)CO |  |  |  |  |  |  |  |  |  |  |  |  | viscosity ([2]; 308.15 K): 2.128 ± 0.017 mPa·s; mass density ([2]; 308.15 K): 794.05 ± 0.14 kg/m3; viscosity ([2]; 313.15 K): 1.822 ± 0.015 mPa·s; mass density ([2]; 313.15 K): 789.65 ± 0.14 kg/m3; viscosity ([2]; 318.15 K): 1.533 ± 0.013 mPa·s; mass density ([2]; 318.15 K): 785.15 ± 0.14 kg/m3; viscosity ([2]; 323.15 K): 1.315 ± 0.011 mPa·s; mass density ([2]; 323.15 K): 780.55 ± 0.15 kg/m3; mass density ([2]; 328.15 K): 775.83 ± 0.15 kg/m3; viscosity ([2]; 333.15 K): 1.025 ± 0.0087 mPa·s; mass density ([2]; 333.15 K): 770.99 ± 0.15 kg/m3; mass density ([2]; 338.15 K): 766.03 ± 0.15 kg/m3; mass density ([2]; 343.15 K): 760.96 ± 0.15 kg/m3
